Data on 18 molecules can be found in US20240043404A1 (AbbVie Inc., priority 2009, published 2024).

The subject of the first assay is RS4;11 cells. Nature of the assay: RS4;11 cell viability assay (CellTiter Glo).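 Also: acute lymphoblastic leukemia line RS4,11, EC50 derived from percentage of viable cells after treatment relative to untreated controls, cell killing taken as a measure of Bcl-2 inhibition.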 Type of assay: cell-based, human. The following applies: Homo sapiens, RS4-11, 48 h, 50,000 cells per well, 10% human serum, 48 hours; read-out: RS4; 11 EC50 Values.
Experimental: The acute lymphoblastic leukemia (ALL) cell line RS4;11 was used as the primary human cell line to assess the cellular activity of Bcl-2 selective agents in vitro and their efficacy in vivo.
Cell cytotoxicity EC50 values were assessed using CellTiter Glo (Promega) according to the manufacturer's recommendations. The EC50 values were determined as a percentage of viable cells following treatment compared to the untreated control cells.
In the case of `CC1(C)CCC(CN2CCN(c3ccc(C(=O)NS(=O)(=O)c4ccc(NC[C@H]5CCCOC5)c([N+](=O)[O-])c4)c(Oc4ccc5[nH]ccc5c4)c3)CC2)=C(c2ccc(Cl)cc2)C1` [Example 22, 4-(4-{[2-(4-chlorophenyl)-4,4-dimethylcyclohex-1-en-1-yl]methyl}piperazin-1-yl)-2-(1H-indol-5-yloxy)-N-[(3-nitro-4-{[(3R)-tetrahydro-2H-pyran-3-ylmethyl]amino}phenyl)sulfonyl]benzamide], the EC50 is 0.085 µM.
The same measure, in the same setting: to `CC1(C)CC(c2ccc(Cl)cc2)=C(CN2CCN(c3ccc(C(=O)NS(=O)(=O)c4ccc(NCC5CCOCC5)c([N+](=O)[O-])c4)c(Oc4ccc5[nH]ccc5c4)c3)CC2)CO1` [Example 23, 4-(4-{[4-(4-chlorophenyl)-6,6-dimethyl-5,6-dihydro-2H-pyran-3-yl]methyl}piperazin-1-yl)-2-(1H-indol-5-yloxy)-N-({3-nitro-4-[(tetrahydro-2H-pyran-4-ylmethyl)amino]phenyl}sulfonyl)benzamide] belongs 0.045 µM.
The same measure, in the same setting: in the case of `CC1(C)CCC(CN2CCN(c3ccc(C(=O)NS(=O)(=O)c4ccc(OCC5CCOCC5)c([N+](=O)[O-])c4)c(Oc4cnc5[nH]ccc5c4)c3)CC2)=C(c2ccc(Cl)cc2)C1` [Example 24, 4-(4-{[2-(4-chlorophenyl)-4,4-dimethylcyclohex-1-en-1-yl]methyl}piperazin-1-yl)-N-{[3-nitro-4-(tetrahydro-2H-pyran-4-ylmethoxy)phenyl]sulfonyl}-2-(1H-pyrrolo[2,3-b]pyridin-5-yloxy)benzamide] it was 0.00983 µM; in that of `CC1(C)CCC(CN2CCN(c3ccc(C(=O)NS(=O)(=O)c4ccc(NCC5COCCO5)c([N+](=O)[O-])c4)c(Oc4cnc5[nH]ccc5c4)c3)CC2)=C(c2ccc(Cl)cc2)C1` (stereo not drawn) [Example 25, 4-(4-{[2-(4-chlorophenyl)-4,4-dimethylcyclohex-1-en-1-yl]methyl}piperazin-1-yl)-N-({4-[(1,4-dioxan-2-ylmethyl)amino]-3-nitrophenyl}sulfonyl)-2-(1H-pyrrolo[2,3-b]pyridin-5-yloxy)benzamide], 0.007 µM; in that of `CC1(C)CCC(CN2CCN(c3ccc(C(=O)NS(=O)(=O)c4ccc(NCC(F)(F)F)c([N+](=O)[O-])c4)c(Oc4cnc5[nH]ccc5c4)c3)CC2)=C(c2ccc(Cl)cc2)C1` [Example 26, 4-(4-{[2-(4-chlorophenyl)-4,4-dimethylcyclohex-1-en-1-yl]methyl}piperazin-1-yl)-N-({3-nitro-4-[(2,2,2-trifluoroethyl)amino]phenyl}sulfonyl)-2-(1H-pyrrolo[2,3-b]pyridin-5-yloxy)benzamide], 0.0589 µM.
For the molecule `CC1(C)CCC(CN2CCN(c3ccc(C(=O)NS(=O)(=O)c4ccc(NCCC(F)(F)F)c([N+](=O)[O-])c4)c(Oc4cnc5[nH]ccc5c4)c3)CC2)=C(c2ccc(Cl)cc2)C1` [Example 27, 4-(4-{[2-(4-chlorophenyl)-4,4-dimethylcyclohex-1-en-1-yl]methyl}piperazin-1-yl)-N-({3-nitro-4-[(3,3,3-trifluoropropyl)amino]phenyl}sulfonyl)-2-(1H-pyrrolo[2,3-b]pyridin-5-yloxy)benzamide], the EC50 amounted to 0.332 µM.
With `CC1(C)CCC(CN2CCN(c3ccc(C(=O)NS(=O)(=O)c4ccc(OC[C@@H]5COCCO5)c([N+](=O)[O-])c4)c(Oc4cnc5[nH]ccc5c4)c3)CC2)=C(c2ccc(Cl)cc2)C1` [Example 28, 4-(4-{[2-(4-chlorophenyl)-4,4-dimethylcyclohex-1-en-1-yl]methyl}piperazin-1-yl)-N-({4-[(2S)-1,4-dioxan-2-ylmethoxy]-3-nitrophenyl}sulfonyl)-2-(1H-pyrrolo[2,3-b]pyridin-5-yloxy)benzamide], the EC50 stood at 0.0419 µM.
For `CO[C@H]1CC[C@@H](CNc2ccc(S(=O)(=O)NC(=O)c3ccc(N4CCN(CC5=C(c6ccc(Cl)cc6)CC(C)(C)CC5)CC4)cc3Oc3cnc4[nH]ccc4c3)cc2[N+](=O)[O-])CC1` [Example 29, Cis-4-(4-{[2-(4-chlorophenyl)-4,4-dimethylcyclohex-1-en-1-yl]methyl}piperazin-1-yl)-N-[(4-{[(4-methoxycyclohexyl)methyl]amino}-3-nitrophenyl)sulfonyl]-2-(1H-pyrrolo[2,3-b]pyridin-5-yloxy)benzamide], the EC50 was found to be 0.0205 µM.
On the same count and under the same terms, to `CC1(C)CCC(CN2CCN(c3ccc(C(=O)NS(=O)(=O)c4ccc(OC[C@H]5COCCO5)c([N+](=O)[O-])c4)c(Oc4cnc5[nH]ccc5c4)c3)CC2)=C(c2ccc(Cl)cc2)C1` [Example 30, 4-(4-{[2-(4-chlorophenyl)-4,4-dimethylcyclohex-1-en-1-yl]methyl}piperazin-1-yl)-N-({4-[(2R)-1,4-dioxan-2-ylmethoxy]-3-nitrophenyl}sulfonyl)-2-(1H-pyrrolo[2,3-b]pyridin-5-yloxy)benzamide] belongs 0.0153 µM; to `CC1(C)CC(c2ccc(Cl)cc2)=C(CN2CCN(c3ccc(C(=O)NS(=O)(=O)c4ccc(NCC5COCCO5)c([N+](=O)[O-])c4)c(Oc4cnc5[nH]ccc5c4)c3)CC2)CO1` (stereo not drawn) [Example 31, 4-(4-{[4-(4-chlorophenyl)-6,6-dimethyl-5,6-dihydro-2H-pyran-3-yl]methyl}piperazin-1-yl)-N-({4-[(1,4-dioxan-2-ylmethyl)amino]-3-nitrophenyl}sulfonyl)-2-(1H-pyrrolo[2,3-b]pyridin-5-yloxy)benzamide], 0.0157 µM; to `CC1(C)CC(c2ccc(Cl)cc2)=C(CN2CCN(c3ccc(C(=O)NS(=O)(=O)c4ccc(OCC5COCCO5)c([N+](=O)[O-])c4)c(Oc4cnc5[nH]ccc5c4)c3)CC2)CO1` (stereo not drawn) [Example 32, 4-(4-{[4-(4-chlorophenyl)-6,6-dimethyl-5,6-dihydro-2H-pyran-3-yl]methyl}piperazin-1-yl)-N-{[4-(1,4-dioxan-2-ylmethoxy)-3-nitrophenyl]sulfonyl}-2-(1H-pyrrolo[2,3-b]pyridin-5-yloxy)benzamide], 0.0815 µM.
Still for that read-out and setting: to `CC1(C)CC(c2ccc(Cl)cc2)=C(CN2CCN(c3ccc(C(=O)NS(=O)(=O)c4ccc(N[C@H]5CC[C@H](N6CCOCC6)CC5)c([N+](=O)[O-])c4)c(Oc4cnc5[nH]ccc5c4)c3)CC2)CO1` [Example 33, Trans-4-(4-{[4-(4-chlorophenyl)-6,6-dimethyl-5,6-dihydro-2H-pyran-3-yl]methyl}piperazin-1-yl)-N-({4-[(4-morpholin-4-ylcyclohexyl)amino]-3-nitrophenyl}sulfonyl)-2-(1H-pyrrolo[2,3-b]pyridin-5-yloxy)benzamide] belongs 0.00711 µM.
As to `CO[C@H]1CC[C@H](CNc2ccc(S(=O)(=O)NC(=O)c3ccc(N4CCN(CC5=C(c6ccc(Cl)cc6)CC(C)(C)CC5)CC4)cc3Oc3cnc4[nH]ccc4c3)cc2[N+](=O)[O-])CC1` [Example 34, Trans-4-(4-{[2-(4-chlorophenyl)-4,4-dimethylcyclohex-1-en-1-yl]methyl}piperazin-1-yl)-N-[(4-{[(4-methoxycyclohexyl)methyl]amino}-3-nitrophenyl)sulfonyl]-2-(1H-pyrrolo[2,3-b]pyridin-5-yloxy)benzamide], the EC50 was found to be 0.00748 µM.
As to `CC1(C)CC(c2ccc(Cl)cc2)=C(CN2CCN(c3ccc(C(=O)NS(=O)(=O)c4cnc(OCC5CCOCC5)c(C#N)c4)c(Oc4cnc5[nH]ccc5c4)c3)CC2)CO1` [Example 35, 4-(4-{[4-(4-chlorophenyl)-6,6-dimethyl-5,6-dihydro-2H-pyran-3-yl]methyl}piperazin-1-yl)-N-{[5-cyano-6-(tetrahydro-2H-pyran-4-ylmethoxy)pyridin-3-yl]sulfonyl}-2-(1H-pyrrolo[2,3-b]pyridin-5-yloxy)benzamide], the EC50 came out at 0.291 µM.
Same read-out and setting: in the case of `CC1(C)CCC(CN2CCN(c3ccc(C(=O)NS(=O)(=O)c4cnc(OCC5CCOCC5)c(C#N)c4)c(Oc4cnc5[nH]ccc5c4)c3)CC2)=C(c2ccc(Cl)cc2)C1` [Example 36, 4-(4-{[2-(4-chlorophenyl)-4,4-dimethylcyclohex-1-en-1-yl]methyl}piperazin-1-yl)-N-{[5-cyano-6-(tetrahydro-2H-pyran-4-ylmethoxy)pyridin-3-yl]sulfonyl}-2-(1H-pyrrolo[2,3-b]pyridin-5-yloxy)benzamide] it was 0.181 µM; in that of `CC1(C)CCC(CN2CCN(c3ccc(C(=O)NS(=O)(=O)c4ccc(OCC5(F)CCOCC5)c([N+](=O)[O-])c4)c(Oc4cnc5[nH]ccc5c4)c3)CC2)=C(c2ccc(Cl)cc2)C1` [Example 37, 4-(4-{[2-(4-chlorophenyl)-4,4-dimethylcyclohex-1-en-1-yl]methyl}piperazin-1-yl)-N-({4-[(4-fluorotetrahydro-2H-pyran-4-yl)methoxy]-3-nitrophenyl}sulfonyl)-2-(1H-pyrrolo[2,3-b]pyridin-5-yloxy)benzamide], 0.00118 µM.
Take `CC1(C)CCC(CN2CCN(c3ccc(C(=O)NS(=O)(=O)c4ccc(OCC5CCOCC5)c(C(N)=O)c4)c(Oc4cnc5[nH]ccc5c4)c3)CC2)=C(c2ccc(Cl)cc2)C1` [Example 38, N-{[3-(aminocarbonyl)-4-(tetrahydro-2H-pyran-4-ylmethoxy)phenyl]sulfonyl}-4-(4-{[2-(4-chlorophenyl)-4,4-dimethylcyclohex-1-en-1-yl]methyl}piperazin-1-yl)-2-(1H-pyrrolo[2,3-b]pyridin-5-yloxy)benzamide]: the EC50 stood at 3.51 µM.
On the same count and under the same terms, to `CC1(C)CCC(CN2CCN(c3ccc(C(=O)NS(=O)(=O)c4ccc(N[C@H]5CC[C@@H](N6CCOCC6)CC5)c([N+](=O)[O-])c4)c(Oc4cnc5[nH]ccc5c4)c3)CC2)=C(c2ccc(Cl)cc2)C1` [Example 39, Cis-4-(4-{[2-(4-chlorophenyl)-4,4-dimethylcyclohex-1-en-1-yl]methyl}piperazin-1-yl)-N-({4-[(4-morpholin-4-ylcyclohexyl)amino]-3-nitrophenyl}sulfonyl)-2-(1H-pyrrolo[2,3-b]pyridin-5-yloxy)benzamide] belongs 0.0197 µM.

The same assay, now with this note: Homo sapiens, RS4-11, Table 4, selected compounds in U.S. Pat. Application No. 12/631404; read-out: RS4; 11 EC50.
Take `CC1(C)CC(c2ccc(Cl)cc2)=C(CN2CCN(c3ccc(C(=O)NS(=O)(=O)c4ccc(NCC5CCOCC5)c([N+](=O)[O-])c4)c(Oc4ccc5[nH]ccc5c4)c3)CC2)CO1` [Example 23, 4-(4-{[4-(4-chlorophenyl)-6,6-dimethyl-5,6-dihydro-2H-pyran-3-yl]methyl}piperazin-1-yl)-2-(1H-indol-5-yloxy)-N-({3-nitro-4-[(tetrahydro-2H-pyran-4-ylmethyl)amino]phenyl}sulfonyl)benzamide]: the EC50 turned out to be 0.045 µM.

Still in this assay, the particulars now being: Homo sapiens, RS4-11, Table 5, direct comparison Z=N with corresponding analogs Z=C; read-out: RS4; 11 EC50.
Consider `CC1(C)CCC(CN2CCN(c3ccc(C(=O)NS(=O)(=O)c4ccc(NC[C@H]5CCCOC5)c([N+](=O)[O-])c4)c(Oc4ccc5[nH]ccc5c4)c3)CC2)=C(c2ccc(Cl)cc2)C1` [Example 22, 4-(4-{[2-(4-chlorophenyl)-4,4-dimethylcyclohex-1-en-1-yl]methyl}piperazin-1-yl)-2-(1H-indol-5-yloxy)-N-[(3-nitro-4-{[(3R)-tetrahydro-2H-pyran-3-ylmethyl]amino}phenyl)sulfonyl]benzamide], for which the EC50 turned out to be 0.085 µM.
The same measure, in the same setting: in the case of `CC1(C)CC(c2ccc(Cl)cc2)=C(CN2CCN(c3ccc(C(=O)NS(=O)(=O)c4ccc(NCC5CCOCC5)c([N+](=O)[O-])c4)c(Oc4ccc5[nH]ccc5c4)c3)CC2)CO1` [Example 23, 4-(4-{[4-(4-chlorophenyl)-6,6-dimethyl-5,6-dihydro-2H-pyran-3-yl]methyl}piperazin-1-yl)-2-(1H-indol-5-yloxy)-N-({3-nitro-4-[(tetrahydro-2H-pyran-4-ylmethyl)amino]phenyl}sulfonyl)benzamide] it was 0.045 µM.
